Results from patent US11542240B2, “STK19 inhibitors for treatment of cancer” (TRUSTEES OF BOSTON UNIVERSITY, priority 2018, dated 2023).

What was measured:
Assay in all cases: biochemical
Assay type in all cases: binding
[1] = target: panel of 468 diverse kinases (Homo sapiens, UniProt Q06187); settings: BTK; 1000 nM; read-out: Percent Control
[2] = target: panel of 468 diverse kinases (Homo sapiens, UniProt P51813); settings: BMX; 1000 nM; read-out: Percent Control
[3] = target: panel of 468 diverse kinases (Homo sapiens, UniProt Q9UEE5); settings: DRAK1; 1000 nM; read-out: Percent Control
[4] = target: panel of 468 diverse kinases (Homo sapiens, UniProt P07332); settings: FES; 1000 nM; read-out: Percent Control
[5] = target: panel of 468 diverse kinases (Homo sapiens, UniProt Q8TF76); settings: HASPIN; 1000 nM; read-out: Percent Control
[6] = target: panel of 468 diverse kinases (Homo sapiens, UniProt Q14012); settings: CAMK1; 1000 nM; read-out: Percent Control
[7] = target: panel of 468 diverse kinases (Homo sapiens, UniProt O00238); settings: BMPR1B; 1000 nM; read-out: Percent Control
Sequence of panel of 468 diverse kinases (Homo sapiens, UniProt O00238) (O00238 14-502 limits assumed): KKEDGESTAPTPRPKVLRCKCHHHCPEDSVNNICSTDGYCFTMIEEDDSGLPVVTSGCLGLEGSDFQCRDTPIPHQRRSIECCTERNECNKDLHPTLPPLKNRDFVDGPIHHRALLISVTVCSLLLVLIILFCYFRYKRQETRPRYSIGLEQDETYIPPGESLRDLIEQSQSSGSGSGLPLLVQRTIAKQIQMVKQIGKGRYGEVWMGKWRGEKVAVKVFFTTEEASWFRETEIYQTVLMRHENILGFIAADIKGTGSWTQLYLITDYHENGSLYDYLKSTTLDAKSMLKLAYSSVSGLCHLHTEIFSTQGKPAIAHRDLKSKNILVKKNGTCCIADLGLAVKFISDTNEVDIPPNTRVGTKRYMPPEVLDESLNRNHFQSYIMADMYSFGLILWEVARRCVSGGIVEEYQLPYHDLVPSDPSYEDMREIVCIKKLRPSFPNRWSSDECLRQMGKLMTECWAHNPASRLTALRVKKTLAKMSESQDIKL

[8] = target: panel of 468 diverse kinases (Homo sapiens, UniProt P08581, M1250T); settings: MET(M1250T); 1000 nM; read-out: Percent Control
[9] = target: panel of 468 diverse kinases (Homo sapiens, UniProt Q13705); settings: ACVR2B; 1000 nM; read-out: Percent Control
[10] = target: panel of 468 diverse kinases (Homo sapiens, UniProt P00533, G719S); settings: EGFR(G719S); 1000 nM; read-out: Percent Control
[11] = target: panel of 468 diverse kinases (Homo sapiens, UniProt O14733); settings: MKK7; 1000 nM; read-out: Percent Control
Sequence of panel of 468 diverse kinases (Homo sapiens, UniProt O14733) (O14733 2-419 limits assumed): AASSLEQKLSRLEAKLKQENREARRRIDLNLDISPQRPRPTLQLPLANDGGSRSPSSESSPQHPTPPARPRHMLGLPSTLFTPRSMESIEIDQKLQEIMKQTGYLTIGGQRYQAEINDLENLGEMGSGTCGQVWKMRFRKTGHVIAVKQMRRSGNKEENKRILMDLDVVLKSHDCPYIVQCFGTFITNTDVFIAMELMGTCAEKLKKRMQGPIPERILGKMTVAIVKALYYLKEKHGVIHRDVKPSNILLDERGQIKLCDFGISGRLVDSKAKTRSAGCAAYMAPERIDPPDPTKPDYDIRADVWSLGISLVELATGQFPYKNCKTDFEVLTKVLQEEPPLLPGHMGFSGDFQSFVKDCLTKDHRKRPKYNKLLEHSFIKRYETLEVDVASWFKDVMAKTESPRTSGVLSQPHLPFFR

[12] = target: panel of 468 diverse kinases (Homo sapiens, UniProt Q9H4A3); settings: WNK1; 1000 nM; read-out: Percent Control
[13] = target: panel of 468 diverse kinases (Homo sapiens, UniProt P10721, A829P); settings: KIT(A829P); 1000 nM; read-out: Percent Control
[14] = target: panel of 468 diverse kinases (Homo sapiens, UniProt Q9P2K8, S808G); settings: GCN2(Kin.Dom.2, S808G); 1000 nM; read-out: Percent Control
[15] = target: panel of 468 diverse kinases (Homo sapiens, UniProt Q9BVS4); settings: RIOK2; 1000 nM; read-out: Percent Control
[16] = target: panel of 468 diverse kinases (Homo sapiens, UniProt O43293); settings: DAPK3; 1000 nM; read-out: Percent Control
[17] = target: panel of 468 diverse kinases (Homo sapiens, UniProt P24723); settings: PRKCH; 1000 nM; read-out: Percent Control
[18] = target: panel of 468 diverse kinases (Homo sapiens, UniProt Q13555); settings: CAMK2G; 1000 nM; read-out: Percent Control
[19] = target: panel of 468 diverse kinases (Homo sapiens, UniProt O43283); settings: LZK; 1000 nM; read-out: Percent Control
[20] = target: panel of 468 diverse kinases (Homo sapiens, UniProt P00533); settings: EGFR; 1000 nM; read-out: Percent Control
[21] = target: panel of 468 diverse kinases (Homo sapiens, UniProt Q16513); settings: PKN2; 1000 nM; read-out: Percent Control
[22] = target: panel of 468 diverse kinases (Homo sapiens, UniProt P36894); settings: BMPRIV; 1000 nM; read-out: Percent Control
[23] = target: panel of 468 diverse kinases (Homo sapiens, UniProt P35590); settings: TIE1; 1000 nM; read-out: Percent Control
Sequence of panel of 468 diverse kinases (Homo sapiens, UniProt P35590) (P35590 22-1138 limits assumed): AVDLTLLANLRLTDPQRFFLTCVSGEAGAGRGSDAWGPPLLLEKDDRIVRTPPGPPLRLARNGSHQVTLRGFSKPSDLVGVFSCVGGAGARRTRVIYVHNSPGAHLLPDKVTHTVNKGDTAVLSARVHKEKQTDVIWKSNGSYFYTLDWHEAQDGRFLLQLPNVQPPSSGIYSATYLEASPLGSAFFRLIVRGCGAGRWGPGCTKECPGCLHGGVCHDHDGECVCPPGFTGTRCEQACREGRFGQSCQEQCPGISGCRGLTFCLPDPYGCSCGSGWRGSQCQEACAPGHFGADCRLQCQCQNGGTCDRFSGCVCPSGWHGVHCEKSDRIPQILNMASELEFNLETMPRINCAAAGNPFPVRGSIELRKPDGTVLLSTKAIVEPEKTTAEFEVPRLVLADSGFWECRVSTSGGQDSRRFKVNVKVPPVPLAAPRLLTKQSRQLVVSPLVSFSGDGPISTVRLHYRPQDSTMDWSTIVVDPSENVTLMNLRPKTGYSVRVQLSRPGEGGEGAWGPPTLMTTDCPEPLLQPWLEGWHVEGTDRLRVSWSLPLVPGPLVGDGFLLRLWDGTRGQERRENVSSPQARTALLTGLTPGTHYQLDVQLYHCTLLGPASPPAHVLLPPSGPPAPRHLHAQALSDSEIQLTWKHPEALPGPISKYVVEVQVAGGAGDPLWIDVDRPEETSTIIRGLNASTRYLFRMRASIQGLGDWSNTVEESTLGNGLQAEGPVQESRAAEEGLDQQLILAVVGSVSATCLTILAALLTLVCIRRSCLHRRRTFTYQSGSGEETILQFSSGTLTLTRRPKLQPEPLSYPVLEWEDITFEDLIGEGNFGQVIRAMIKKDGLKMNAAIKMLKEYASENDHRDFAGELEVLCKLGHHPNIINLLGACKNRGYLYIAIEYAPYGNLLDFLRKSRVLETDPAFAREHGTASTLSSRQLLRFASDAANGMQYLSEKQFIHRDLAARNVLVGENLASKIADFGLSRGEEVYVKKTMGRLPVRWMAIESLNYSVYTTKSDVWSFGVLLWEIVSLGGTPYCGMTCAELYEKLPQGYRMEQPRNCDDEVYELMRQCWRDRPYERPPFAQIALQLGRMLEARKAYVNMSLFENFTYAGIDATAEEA

[24] = target: panel of 468 diverse kinases (Homo sapiens, UniProt Q92630); settings: DYRK2; 1000 nM; read-out: Percent Control
[25] = target: panel of 468 diverse kinases (Homo sapiens, UniProt Q96GD4); settings: AURKB; 1000 nM; read-out: Percent Control
[26] = target: panel of 468 diverse kinases (Homo sapiens, UniProt P10721, L576P); settings: KIT(L576P); 1000 nM; read-out: Percent Control
[27] = target: panel of 468 diverse kinases (Homo sapiens, UniProt P23443); settings: S6K1; 1000 nM; read-out: Percent Control
[28] = target: panel of 468 diverse kinases (Homo sapiens, UniProt P42684); settings: ABL2; 1000 nM; read-out: Percent Control
Sequence of panel of 468 diverse kinases (Homo sapiens, UniProt P42684) (P42684 2-1182 limits assumed): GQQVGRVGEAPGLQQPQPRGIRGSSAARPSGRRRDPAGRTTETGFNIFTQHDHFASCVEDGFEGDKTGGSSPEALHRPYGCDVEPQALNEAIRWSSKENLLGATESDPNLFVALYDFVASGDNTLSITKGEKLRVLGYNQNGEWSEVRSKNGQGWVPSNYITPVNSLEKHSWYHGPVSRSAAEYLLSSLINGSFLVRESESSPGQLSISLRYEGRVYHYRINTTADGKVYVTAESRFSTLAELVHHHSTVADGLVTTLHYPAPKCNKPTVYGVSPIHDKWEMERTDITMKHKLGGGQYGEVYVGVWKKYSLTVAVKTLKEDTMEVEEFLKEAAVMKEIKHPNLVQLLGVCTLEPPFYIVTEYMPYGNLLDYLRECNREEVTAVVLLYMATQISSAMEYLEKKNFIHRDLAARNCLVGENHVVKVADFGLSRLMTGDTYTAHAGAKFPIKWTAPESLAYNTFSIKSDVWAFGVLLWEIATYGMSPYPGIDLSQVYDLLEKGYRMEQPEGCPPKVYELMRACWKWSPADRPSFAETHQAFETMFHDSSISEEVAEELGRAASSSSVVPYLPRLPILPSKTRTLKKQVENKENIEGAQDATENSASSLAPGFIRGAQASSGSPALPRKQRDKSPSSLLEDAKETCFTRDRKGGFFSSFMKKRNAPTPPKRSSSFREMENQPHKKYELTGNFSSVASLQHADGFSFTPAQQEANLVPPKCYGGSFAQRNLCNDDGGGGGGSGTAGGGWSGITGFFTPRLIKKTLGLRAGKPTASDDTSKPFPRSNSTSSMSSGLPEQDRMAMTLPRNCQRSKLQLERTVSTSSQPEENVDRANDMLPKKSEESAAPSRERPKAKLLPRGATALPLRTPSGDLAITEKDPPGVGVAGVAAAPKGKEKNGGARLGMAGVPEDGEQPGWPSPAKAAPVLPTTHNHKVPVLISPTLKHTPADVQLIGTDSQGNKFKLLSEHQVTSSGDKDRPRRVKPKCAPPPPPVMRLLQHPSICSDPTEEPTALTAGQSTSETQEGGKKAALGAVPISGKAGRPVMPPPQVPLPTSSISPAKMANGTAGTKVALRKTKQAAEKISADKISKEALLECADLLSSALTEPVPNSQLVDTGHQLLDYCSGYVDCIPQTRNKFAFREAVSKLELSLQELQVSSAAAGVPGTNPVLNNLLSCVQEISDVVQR

[29] = target: panel of 468 diverse kinases (Homo sapiens, UniProt P00533, DEL746-750); settings: EGFR(E746-A750del); 1000 nM; read-out: Percent Control
Sequence of panel of 468 diverse kinases (Homo sapiens, UniProt P00533, DEL746-750) (P00533 with tags, fused parts or gaps DEL746-750 limits assumed): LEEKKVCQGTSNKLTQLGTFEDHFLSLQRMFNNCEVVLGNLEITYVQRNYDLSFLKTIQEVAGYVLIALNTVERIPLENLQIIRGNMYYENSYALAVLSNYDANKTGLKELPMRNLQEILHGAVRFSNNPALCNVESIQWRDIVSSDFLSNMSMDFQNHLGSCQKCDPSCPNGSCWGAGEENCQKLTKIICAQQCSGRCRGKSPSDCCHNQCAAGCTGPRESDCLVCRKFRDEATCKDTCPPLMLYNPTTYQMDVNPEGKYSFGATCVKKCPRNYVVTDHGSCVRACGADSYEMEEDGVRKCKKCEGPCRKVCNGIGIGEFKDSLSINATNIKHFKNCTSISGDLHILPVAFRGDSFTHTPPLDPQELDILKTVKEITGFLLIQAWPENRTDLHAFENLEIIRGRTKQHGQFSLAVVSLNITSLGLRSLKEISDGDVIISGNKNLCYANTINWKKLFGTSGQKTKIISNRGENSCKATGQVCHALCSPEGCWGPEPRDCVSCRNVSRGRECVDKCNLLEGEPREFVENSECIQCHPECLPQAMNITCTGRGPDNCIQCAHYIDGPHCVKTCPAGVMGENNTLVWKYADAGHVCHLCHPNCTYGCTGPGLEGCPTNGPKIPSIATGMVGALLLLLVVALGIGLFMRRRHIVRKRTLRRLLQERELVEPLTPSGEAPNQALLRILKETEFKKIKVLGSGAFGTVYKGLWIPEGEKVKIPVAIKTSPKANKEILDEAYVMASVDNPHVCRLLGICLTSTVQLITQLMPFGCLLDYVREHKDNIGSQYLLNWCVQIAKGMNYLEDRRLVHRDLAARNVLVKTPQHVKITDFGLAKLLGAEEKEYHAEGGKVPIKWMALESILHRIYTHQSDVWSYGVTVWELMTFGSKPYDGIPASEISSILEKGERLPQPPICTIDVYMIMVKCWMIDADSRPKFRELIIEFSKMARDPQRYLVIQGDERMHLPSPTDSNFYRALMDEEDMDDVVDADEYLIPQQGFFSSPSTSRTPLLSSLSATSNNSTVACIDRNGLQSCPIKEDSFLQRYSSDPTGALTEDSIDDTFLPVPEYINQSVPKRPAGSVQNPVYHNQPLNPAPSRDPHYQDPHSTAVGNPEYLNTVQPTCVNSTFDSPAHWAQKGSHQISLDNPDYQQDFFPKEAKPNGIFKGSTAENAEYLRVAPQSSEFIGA

[30] = target: panel of 468 diverse kinases (Homo sapiens, UniProt O15111); settings: IKK-alpha; 1000 nM; read-out: Percent Control
[31] = target: panel of 468 diverse kinases (Plasmodium falciparum, UniProt P61075); settings: read-out: Percent Control

Sequence of panel of 468 diverse kinases (Homo sapiens, UniProt Q06187) (Q06187 2-659 limits assumed): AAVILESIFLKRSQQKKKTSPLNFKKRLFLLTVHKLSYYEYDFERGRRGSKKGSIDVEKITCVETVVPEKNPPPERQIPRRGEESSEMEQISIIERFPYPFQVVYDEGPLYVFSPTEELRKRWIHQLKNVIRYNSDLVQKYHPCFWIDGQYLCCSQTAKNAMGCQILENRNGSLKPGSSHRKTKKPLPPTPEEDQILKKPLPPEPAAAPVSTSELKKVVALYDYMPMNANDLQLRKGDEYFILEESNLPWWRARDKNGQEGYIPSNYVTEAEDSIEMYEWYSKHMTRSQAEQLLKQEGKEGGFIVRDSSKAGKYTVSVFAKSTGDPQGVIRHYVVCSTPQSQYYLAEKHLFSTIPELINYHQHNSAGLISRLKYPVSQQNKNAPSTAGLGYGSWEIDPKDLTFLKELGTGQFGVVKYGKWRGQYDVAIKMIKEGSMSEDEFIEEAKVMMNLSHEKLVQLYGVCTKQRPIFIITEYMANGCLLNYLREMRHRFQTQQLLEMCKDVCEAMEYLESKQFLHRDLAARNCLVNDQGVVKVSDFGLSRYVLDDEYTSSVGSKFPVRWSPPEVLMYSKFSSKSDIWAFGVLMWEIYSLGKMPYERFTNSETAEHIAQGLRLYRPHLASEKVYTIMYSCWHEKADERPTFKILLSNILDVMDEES

COc1cc2nc(NC3CC3)nc(NC3CCN(C(C)C)CC3)c2cc1OC [Formula IV]
remaining activity at 1 µM [1]: 89% | remaining activity at 1 µM [2]: 100% | remaining activity at 1 µM [3]: 96% | remaining activity at 1 µM [4]: 100% | remaining activity at 1 µM [5]: 71% | remaining activity at 1 µM [6]: 91% | remaining activity at 1 µM [7]: 55% | remaining activity at 1 µM [8]: 88% | remaining activity at 1 µM [9]: 76% | remaining activity at 1 µM [10]: 91% | remaining activity at 1 µM [11]: 72% | remaining activity at 1 µM [12]: 59% | remaining activity at 1 µM [13]: 78% | remaining activity at 1 µM [14]: 94% | remaining activity at 1 µM [15]: 80% | remaining activity at 1 µM [16]: 89% | remaining activity at 1 µM [17]: 81% | remaining activity at 1 µM [18]: 100% | remaining activity at 1 µM [19]: 45% | remaining activity at 1 µM [20]: 97% | remaining activity at 1 µM [21]: 98% | remaining activity at 1 µM [22]: 100% | remaining activity at 1 µM [23]: 97% | remaining activity at 1 µM [24]: 84% | remaining activity at 1 µM [25]: 84% | remaining activity at 1 µM [26]: 100% | remaining activity at 1 µM [27]: 50% | remaining activity at 1 µM [28]: 98% | remaining activity at 1 µM [29]: 63% | remaining activity at 1 µM [30]: 80% | remaining activity at 1 µM [31]: 48%
